The values below come from patent US9650389B2, “8-oxoprotoberberine derivative or pharmaceutically acceptable salt thereof, preparation method therefor and pharmaceutical composition for preventing or treating diseases associated with activity of NFAT5, containing same as active ingredient” (Korea Research Institute of Chemical Technology, priority 2013, dated 2017).

In one test the test system is iNOS. Nature of the test: Inhibition of LPS-induced iNOS induction in Raw264.7 cells (Griess reagent). The test is classed as cell-based. To be noted: Mus musculus, read-out: Inhibition rate of iNOS induction (%). The procedure: To investigate whether or not the derivative of the present invention could inhibit iNOS inducement, Raw264.7 cells (mouse macrophages) were distributed in a 384-well plate at the density of 3×10^4 cells/well. The cells were treated with LPS at the concentration of 100 ng/ml, followed by culture at 37° C. for 24 hours. The concentration of […] increased in the medium was measured by using Griess reagent. The inhibition rate was calculated by mathematical formula based on the detected signals. The results are shown in Table 2. % inhibition=(mean value of sample−mean value of negative control)/(mean value of positive control −mean value of negative control)×100 [Mathematical Formula 1]
(Griess reagent forms a coloured azo dye with nitrite.)

The target in a further test is T1, NFAT5 (Mus musculus, UniProt Q9WV30).
T1 construct: endogenous in cells; host or cells: RAW264.7
Briefly: NFAT5 reporter screening (GFP, HCS) in LPS-treated Raw264.7 cells. The class given is cell-based. To be noted: for Inhibition rate of NFAT5 transcription (%): Raw264.7 reporter, LPS 1 μg/ml, 48 hours. The procedure: To investigate whether or not the derivative of the present invention could inhibit the transcriptional activity of NFAT5, NFAT5 reporter screening was performed. A plasmid vector was constructed by eliminating CMV promoter sequence from the backbone and inserting NFAT5 binding site sequence ([…]) instead. Raw264.7 cells transfected with the vector were cultured in 10% FBS-PRMI (supplemented with 500 μg/ml G418). The cells were distributed in a 96-well plate at the density of 3×10^3 cells/well, followed by further culture for one more day. The cells were treated with LPS at the concentration of 1 μg/ml for 48 hours. Then, the cells were fixed and the expression level of GFP was measured by HCS fluorescence image (Thermo, ArrayScan^VTI).

The target of another test is T2, COX1 (Ovis aries, UniProt P05979).
T2 construct: purchased Cayman Co. 760111
T2 sequence (P05979 25-600): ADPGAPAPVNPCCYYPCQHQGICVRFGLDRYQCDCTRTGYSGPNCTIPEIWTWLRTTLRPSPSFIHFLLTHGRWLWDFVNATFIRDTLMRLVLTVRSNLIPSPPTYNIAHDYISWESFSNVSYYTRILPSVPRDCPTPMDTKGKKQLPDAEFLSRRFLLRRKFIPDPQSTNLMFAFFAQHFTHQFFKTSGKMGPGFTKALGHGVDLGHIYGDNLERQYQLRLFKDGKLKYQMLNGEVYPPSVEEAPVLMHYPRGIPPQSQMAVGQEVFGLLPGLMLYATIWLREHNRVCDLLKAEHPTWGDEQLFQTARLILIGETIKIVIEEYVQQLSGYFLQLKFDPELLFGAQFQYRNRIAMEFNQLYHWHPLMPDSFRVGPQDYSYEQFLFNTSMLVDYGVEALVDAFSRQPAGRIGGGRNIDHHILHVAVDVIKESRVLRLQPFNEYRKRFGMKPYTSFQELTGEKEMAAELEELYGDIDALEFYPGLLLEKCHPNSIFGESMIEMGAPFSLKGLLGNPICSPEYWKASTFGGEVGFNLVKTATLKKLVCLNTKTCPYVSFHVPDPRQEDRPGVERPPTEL
Briefly: COX inhibition, COX assay kit (Table 4). The class given is biochemical. As to the method:
(§1) 10 μl of substrate and 10 μl of arachidonic acid were added thereto, followed by reaction for 10 minutes in the darkness. Then, OD590 was measured.

In a further test the target is T3, COX2 (Ovis aries, UniProt P79208).
T3 construct: purchased Cayman Co. 760111
T3 sequence (P79208 17-603): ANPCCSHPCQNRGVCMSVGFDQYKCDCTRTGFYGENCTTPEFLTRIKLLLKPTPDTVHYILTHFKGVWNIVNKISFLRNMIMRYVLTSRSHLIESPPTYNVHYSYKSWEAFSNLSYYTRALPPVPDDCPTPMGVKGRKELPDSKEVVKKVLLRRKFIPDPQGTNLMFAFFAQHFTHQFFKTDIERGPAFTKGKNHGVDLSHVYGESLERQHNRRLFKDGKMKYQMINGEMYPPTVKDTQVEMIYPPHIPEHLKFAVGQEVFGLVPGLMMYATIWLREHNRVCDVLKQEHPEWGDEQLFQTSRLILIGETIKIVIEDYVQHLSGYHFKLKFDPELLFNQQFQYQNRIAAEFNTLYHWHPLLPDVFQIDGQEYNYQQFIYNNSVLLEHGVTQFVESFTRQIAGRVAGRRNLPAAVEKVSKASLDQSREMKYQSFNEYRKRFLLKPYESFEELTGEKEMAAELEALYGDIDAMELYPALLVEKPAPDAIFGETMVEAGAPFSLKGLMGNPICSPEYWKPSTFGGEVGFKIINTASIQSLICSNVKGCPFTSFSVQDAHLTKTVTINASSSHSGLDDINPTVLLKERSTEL
Briefly: COX inhibition, COX assay kit (Table 5). The class given is biochemical. As to the method: as §1

[1] abbreviates: 1 μM, Raw264.7, LPS 100 ng/ml, 24 hours.
[2] abbreviates: 10 μM, Raw264.7, LPS 100 ng/ml, 24 hours.
Setting [3] is: Conc. 0.16 μM, two values per substance.
The mark [4] stands for this setting: Conc. 0.16 μM, two values per substance, read-out: inhibition rate.
Setting [5] is: Conc. 0.8 μM, two values per substance.
[6] abbreviates: Conc. 0.8 μM, two values per substance, read-out: inhibition rate.
Setting [7] is: Conc. 4 μM, two values per substance.
The mark [8] stands for this setting: Conc. 4 μM, two values per substance, read-out: inhibition rate.
Where [9] appears, read: Conc. 20 μM, two values per substance.
Where [10] appears, read: Conc. 20 μM, two values per substance, read-out: inhibition rate.
[11] abbreviates: Conc. 100 μM, two values per substance.
Setting [12] is: Conc. 100 μM, two values per substance, read-out: inhibition rate.

Like-named read-outs stand apart in the source and are kept apart here.

T1 sequence (Q9WV30 whole entry): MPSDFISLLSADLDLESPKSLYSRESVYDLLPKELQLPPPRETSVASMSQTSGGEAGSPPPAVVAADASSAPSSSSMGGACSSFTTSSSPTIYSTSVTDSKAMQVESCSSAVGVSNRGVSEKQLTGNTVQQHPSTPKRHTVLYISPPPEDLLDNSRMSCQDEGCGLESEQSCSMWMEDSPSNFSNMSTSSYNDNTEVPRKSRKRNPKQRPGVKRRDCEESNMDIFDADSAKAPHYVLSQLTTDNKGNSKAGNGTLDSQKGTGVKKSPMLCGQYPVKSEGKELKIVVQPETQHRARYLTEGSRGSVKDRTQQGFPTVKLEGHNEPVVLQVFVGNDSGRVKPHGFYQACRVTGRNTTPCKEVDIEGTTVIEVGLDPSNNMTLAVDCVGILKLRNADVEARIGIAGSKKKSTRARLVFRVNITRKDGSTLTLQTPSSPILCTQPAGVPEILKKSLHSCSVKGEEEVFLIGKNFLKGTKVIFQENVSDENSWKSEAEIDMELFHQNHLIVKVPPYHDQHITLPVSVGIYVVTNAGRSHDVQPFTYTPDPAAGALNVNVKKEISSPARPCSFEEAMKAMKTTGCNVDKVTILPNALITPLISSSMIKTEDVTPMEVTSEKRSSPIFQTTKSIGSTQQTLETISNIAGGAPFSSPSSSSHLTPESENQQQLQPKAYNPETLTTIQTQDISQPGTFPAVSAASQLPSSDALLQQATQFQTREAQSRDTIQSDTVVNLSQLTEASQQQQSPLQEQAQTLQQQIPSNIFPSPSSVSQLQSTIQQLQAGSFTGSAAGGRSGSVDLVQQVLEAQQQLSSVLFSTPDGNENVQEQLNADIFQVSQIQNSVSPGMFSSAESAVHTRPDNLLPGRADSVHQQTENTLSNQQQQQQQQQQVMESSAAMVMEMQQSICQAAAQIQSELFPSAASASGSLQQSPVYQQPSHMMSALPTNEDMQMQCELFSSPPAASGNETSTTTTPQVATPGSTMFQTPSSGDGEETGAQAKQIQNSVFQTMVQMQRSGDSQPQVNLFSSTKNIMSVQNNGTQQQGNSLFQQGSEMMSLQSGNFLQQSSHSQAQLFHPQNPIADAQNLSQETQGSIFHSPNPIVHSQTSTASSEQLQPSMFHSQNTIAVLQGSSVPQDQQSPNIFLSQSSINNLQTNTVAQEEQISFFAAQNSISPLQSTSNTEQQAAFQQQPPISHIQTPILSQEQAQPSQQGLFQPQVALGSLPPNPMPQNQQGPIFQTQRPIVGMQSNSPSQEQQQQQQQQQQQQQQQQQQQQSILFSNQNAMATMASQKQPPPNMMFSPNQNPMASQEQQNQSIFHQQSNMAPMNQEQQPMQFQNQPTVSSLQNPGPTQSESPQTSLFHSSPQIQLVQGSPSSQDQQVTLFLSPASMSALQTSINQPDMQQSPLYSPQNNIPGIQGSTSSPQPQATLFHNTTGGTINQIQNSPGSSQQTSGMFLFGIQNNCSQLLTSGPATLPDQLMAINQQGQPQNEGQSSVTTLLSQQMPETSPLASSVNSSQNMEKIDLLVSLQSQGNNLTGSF

Usually inhibition stands for the drop in the measured response relative to a control, in per cent. As for `CCOC(=O)c1c2n(c(=O)c3c(OC)c(OC)ccc13)CCc1cc3c(cc1-2)OCO3` [Example 10, ethyl9,10-dimethoxy-8-oxo-6,8-dihydro-5H-[1,3]dioxolo[4,5-g]isoquinolino[3,2-a]isoquinoline-13-carboxylate], the inhibition at 1 µM in the test on iNOS (RAW264.7, 24 h) came out at 53.9%. For the same molecule, the inhibition at 10 µM with iNOS (RAW264.7, 24 h) stood at 99.2%. The entries for the “Inhibition rate of NFAT5 transcription (%)” value (“Inhibition rate … (%)” below) on NFAT5 (1 μM) and on NFAT5 (10 μM) were −3.8% and 53.7%, respectively. In addition, the “inhibiting NFAT5 activity (in words)” value against NFAT5 (Table 3 and FIG. 1) was “remarkably excellent in inhibiting NFAT5 activity”.
Consider `COc1ccc2c(C(=O)O)c3n(c(=O)c2c1OC)CCc1cc2c(cc1-3)OCO2` [Example 11, 9,10-dimethoxy-8-oxo-6,8-dihydro-5H-[1,3]dioxolo[4,5-g]isoquinolino[3,2-a]isoquinoline-13-carboxylic acid], for which, in the test on iNOS (setting [1]), the inhibition at 1 µM was -17.2%. Besides, the inhibition at 10 µM in the test with iNOS (setting [2]) was determined as 118%. For the same molecule, the “Inhibition rate … (%)” value is on record as −10.4% on NFAT5 (1 μM) and −12.8% on NFAT5 (10 μM).
For the molecule `COc1ccc2c(C(N)=O)c3n(c(=O)c2c1OC)CCc1cc2c(cc1-3)OCO2` [Example 12, 9,10-dimethoxy-8-oxo-6,8-dihydro-5H-[1,3]dioxolo[4,5-g]isoquinolino[3,2-a]isoquinoline-13-carboxamide], in the test on iNOS (setting [1]), the inhibition at 1 µM is 35.4%. Moreover, in the test on iNOS (setting [2]), the inhibition at 10 µM is 107%. The “Inhibition rate … (%)” value at NFAT5 (1 μM) is on record as −2.9%; on NFAT5 (10 μM), −5.2%.
Take `COc1ccc2c(Cc3ccc(F)cc3F)c3n(c(=O)c2c1OC)CCc1cc2c(cc1-3)OCO2` [Example 2, 13-(2,4-difluorobenzyl)-9,10-dimethoxy-5H-[1,3]dioxolo[4,5-g]isoquinolino[3,2-a]isoquinoline-8(6H)-one]: the inhibition at 1 µM in the test with iNOS (setting [1]) was 56.8%. Moreover, in the test with iNOS (setting [2]), the inhibition at 10 µM stood at 95.2%. The “Inhibition rate … (%)” value is recorded as 13.6% on NFAT5 (1 μM) and 24.4% on NFAT5 (10 μM).
As a reminder, the IC50 is the concentration needed to halve the response being measured. High values mean weaker potency in that assay, low ones greater potency in that assay. `COc1ccc2cc3[n+](cc2c1OC)CCc1cc2c(cc1-3)OCO2` [Berberine]: the inhibition rate on COX1 (setting [3]) came to 5.4; against COX1 (setting [5]) it was 13.4; against COX1 (setting [7]), 20.4; on COX1 (setting [9]), 31.4; against COX1 (setting [11]), 51.5; against COX2 (setting [3]) it was 7.9. For the same molecule, the inhibition rate against COX2 (setting [5]) is on record as 19.8; at COX2 (setting [7]), 29.9; against COX2 (setting [9]) it was 39.3; at COX2 (setting [11]), 53.7. In addition, the values for the inhibition at 0.16 µM at COX1 (setting [4]) and on COX2 (setting [4]) were 3.3% and 8.8%, respectively. The inhibition at 0.8 µM at COX1 (setting [6]) was 12.4%; on COX2 (setting [6]), 17.2%. The results for the inhibition at 4 µM at COX1 (setting [8]) and on COX2 (setting [8]) were 18.4% and 28.2%, respectively. Besides, the inhibition at 20 µM at COX1 (setting [10]) was found to be 24.4%; on COX2 (setting [10]), 41%. Moreover, the inhibition at 100 µM at COX1 (setting [12]) was 53.5%; at COX2 (setting [12]), 50.3%. In addition, the IC50 against COX1 (Table 4) was 96.3 µM; on COX2 (Table 5), 58.4 µM. Besides, the inhibition at 0.032 µM at COX2 (Conc. 0.032 μM, two values per substance, read-out: inhibition rate) came out at 0%.
For the molecule `COc1ccc2c(C(=O)Nc3ccccc3F)c3n(c(=O)c2c1OC)CCc1cc2c(cc1-3)OCO2` [Example 13, N-(2-fluorophenyl)-9,10-dimethoxy-8-oxo-6,8-dihydro-5H-[1,3]dioxolo[4,5-g]isoquinolino[3,2-a]isoquinoline-13-carboxamide], the inhibition at 1 µM in the test on iNOS (setting [1]) was found to be 70.8%. Also, the inhibition at 10 µM with iNOS (setting [2]) turned out to be 106%. Further, the “Inhibition rate … (%)” value at NFAT5 (1 μM) is −11.1%; at NFAT5 (10 μM), −29.9%.
The matching figures for `COc1ccc2c(C(=O)c3ccccc3F)c3n(c(=O)c2c1OC)CCc1cc2c(cc1-3)OCO2` [Example 9, 13-(2-fluorobenzoyl)-9,10-dimethoxy-5H-[1,3]dioxolo[4,5-g]isoquinolino[3,2-a]isoquinoline-8(6H)-one]: 65.6%, 117%, 0.5% and 16.4%.
Consider `COc1ccc2c(Cc3nc4ccccc4[nH]3)c3n(c(=O)c2c1OC)CCc1cc2c(cc1-3)OCO2` [Example 7, 13-((1H-benzo[d]imidazole-2-yl)methyl)-9,10-dimethoxy-5,6-dihydro-[1,3]dioxolo [4,5-g]isoquinolino[3,2-a]isoquinoline-8(6H)-one], for which, in the test with iNOS (RAW264.7, 24 h), the inhibition at 1 µM amounted to 13.4% and the inhibition at 10 µM was determined as 100%. Further, on NFAT5 (1 μM), the “Inhibition rate … (%)” value was determined as 18.5%. Also, the “Inhibition rate … (%)” value on NFAT5 (10 μM) was determined as 28.2%.
For the molecule `COc1ccc2c(Cc3ccccc3C)c3n(c(=O)c2c1OC)CCc1cc2c(cc1-3)OCO2` [Example 4, 9,10-dimethoxy-13-(2-methylbenzyl)-5,6-dihydro-[1,3]dioxolo[4,5-g]isoquinolino [3,2-a]isoquinoline-8(6H)-one], the inhibition at 1 µM in the test with iNOS (setting [1]) turned out to be 23.2%. The inhibition at 10 µM in the test with iNOS (setting [2]) is 97.9%. Besides, the entries for the “Inhibition rate … (%)” value at NFAT5 (1 μM) and at NFAT5 (10 μM) were 7.4% and 88.2%, respectively.
For the molecule `COc1ccccc1Cc1c2n(c(=O)c3c(OC)c(OC)ccc13)CCc1cc3c(cc1-2)OCO3` [Example 5, 9,10-dimethoxy-13-(2-methoxybenzyl)-5,6-dihydro-[1,3]dioxolo[4,5-g]isoquinolino [3,2-a]isoquinoline-8(6H)-one], the inhibition at 1 µM in the test with iNOS (setting [1]) was determined as 29%. Also, the inhibition at 10 µM in the test on iNOS (setting [2]) worked out at 98.3%. Also, the “Inhibition rate … (%)” value at NFAT5 (1 μM) came out at 24.2%; at NFAT5 (10 μM), 77.6%.
